# Assay results from patent US10544150B2, “NK-3 receptor selective antagonist compounds, pharmaceutical composition and methods for use in NK-3 receptors mediated disorders” (Ogeda SA, priority 2010, dated 2020).
# Target: human NK-3 receptor (Homo sapiens (Human), UniProt P29371)
# Assay: 3H-SB222200 binding competition assay with human NK-3 receptor
# Conditions: 3H-SB222200 displacement, CHO cell membranes expressing human NK3 receptor; read-out: Ki range
# In short: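 Radioligand displacement: 5 nM tritiated SB222200 competed by varying compound concentrations on recombinant CHO membranes bearing human NK3, buffer pH 7.4 with HEPES, NaCl, CaCl2, MgCl2, BSA and saponin. Filter-bound radioactivity quantified; calculated Ki given as ranges from +++ (<500 nM) to # (>5 μM).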
# Chain of human NK-3 receptor (P29371 whole entry): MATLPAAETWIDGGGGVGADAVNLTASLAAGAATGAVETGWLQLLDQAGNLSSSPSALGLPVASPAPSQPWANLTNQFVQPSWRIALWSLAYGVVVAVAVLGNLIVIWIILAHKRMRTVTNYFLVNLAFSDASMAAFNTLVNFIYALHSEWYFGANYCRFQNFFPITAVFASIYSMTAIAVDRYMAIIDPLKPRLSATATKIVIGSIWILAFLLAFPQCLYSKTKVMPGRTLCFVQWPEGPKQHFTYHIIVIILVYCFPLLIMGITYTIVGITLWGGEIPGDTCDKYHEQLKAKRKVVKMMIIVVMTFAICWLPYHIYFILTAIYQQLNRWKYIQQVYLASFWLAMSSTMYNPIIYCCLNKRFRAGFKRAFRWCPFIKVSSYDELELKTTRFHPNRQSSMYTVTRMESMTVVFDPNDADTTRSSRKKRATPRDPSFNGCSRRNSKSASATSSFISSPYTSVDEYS
row,Ki [nM],SMILES
1,< 500,"CC1c2nnc(-c3coc(-c4ccccc4)n3)n2CCN1C(=O)c1ccc(-c2cccs2)cc1 (stereo not drawn) [Compound 114, (8-methyl-3-(2-phenyloxazol-4-yl)-5,6-dihydro-[1,2,4]triazolo[4,3-a]pyrazin-7(8H)-yl)(4-(thiophen-2-yl)phenyl)methanone]"
2,< 500,"C[C@@H]1c2nnc(-c3ccc4ccccc4n3)n2CCN1C(=O)c1ccc(-c2cccs2)cc1 [Compound 144, (R)-(8-methyl-3-(quinolin-2-yl)-5,6-dihydro-[1,2,4]triazolo[4,3-a]pyrazin-7(8H)-yl)(4-(thiophen-2-yl)phenyl)methanone]"
3,< 500,"C[C@@H]1c2nnc(-c3csc(-c4ccc(F)cc4)n3)n2CCN1C(=O)c1ccc(F)cc1 [Compound 71, (R)-(4-fluorophenyl)(3-(2-(4-fluorophenyl)thiazol-4-yl)-8-methyl-5,6-dihydro-[1,2,4]triazolo[4,3-a]pyrazin-7(8H)-yl)methanone]"
4,< 500,"C[C@@H]1c2nnc(-c3csc(-c4ccccc4)n3)n2CCN1C(=O)c1ccc(-c2cccs2)cc1 [Compound 135, (R)-(8-methyl-3-(2-phenylthiazol-4-yl)-5,6-dihydro-[1,2,4]triazolo[4,3-a]pyrazin-7(8H)-yl)(4-(thiophen-2-yl)phenyl)methanone]"
5,1000 to 5000,"O=C(c1cnc(-c2ccccc2)nc1)N1CCn2c(nnc2-c2ccc3ccccc3n2)C1 [Compound 92, (2-phenylpyrimidin-5-yl)(3-(quinolin-2-yl)-5,6-dihydro-[1,2,4]triazolo[4,3-a]pyrazin-7(8H)-yl)methanone]"
6,500 to 1000,"NCCOc1ccccc1-c1nc(-c2nnc3n2CCN(C(=O)c2ccc(-c4cccs4)cc2)C3)cs1 [Compound 282, (3-(2-(2-(2-aminoethoxy)phenyl)thiazol-4-yl)-5,6-dihydro-[1,2,4]triazolo[4,3-a]pyrazin-7(8H)-yl)(4-(thiophen-2-yl)phenyl)methanone]"
7,< 500,"O=C(c1ccc(F)cc1)N1CCn2c(nnc2-c2csc(N3CCCCC3)n2)C1 [Compound 33, (4-fluorophenyl)(3-(2-(piperidin-1-yl)thiazol-4-yl)-5,6-dihydro-[1,2,4]triazolo[4,3-a]pyrazin-7(8H)-yl)methanone]"
8,500 to 1000,"CN1CCN(c2nc(-c3nnc4n3CCN(C(=O)c3ccc(-c5cccs5)cc3)C4)cs2)CC1 [Compound 250, (3-(2-(4-methylpiperazin-1-yl)thiazol-4-yl)-5,6-dihydro-[1,2,4]triazolo[4,3-a]pyrazin-7(8H)-yl)(4-(thiophen-2-yl)phenyl)methanone]"
9,< 500,"O=C(c1ccc(-c2ccccc2)cc1)N1CCn2c(nnc2-c2csc(-c3ccccc3F)n2)C1 [Compound 182, [1,1′-biphenyl]-4-yl(3-(2-(2-fluorophenyl)thiazol-4-yl)-5,6-dihydro-[1,2,4]triazolo[4,3-a]pyrazin-7(8H)-yl)methanone]"
10,< 500,"O=C(c1ccc(-c2cccs2)cc1)N1CCn2c(nnc2-c2csc(N3CCC(F)(F)CC3)n2)C1 [Compound 263, (3-(2-(4,4-difluoropiperidin-1-yl)thiazol-4-yl)-5,6-dihydro-[1,2,4]triazolo[4,3-a]pyrazin-7(8H)-yl)(4-(thiophen-2-yl)phenyl)methanone]"
11,< 500,"C[C@@H]1c2nnc(-c3ccc4ccccc4n3)n2CCN1C(=O)c1ccc(F)cc1 [Compound 115, (R)-(4-fluorophenyl)(8-methyl-3-(quinolin-2-yl)-5,6-dihydro-[1,2,4]triazolo[4,3-a]pyrazin-7(8H)-yl)methanone]"
12,< 500,"COc1ccc(-c2nc(-c3nnc4n3CCN(C(=O)c3ccc(F)cc3)C4)cs2)cc1OC [Compound 40, (3-(2-(3,4-dimethoxyphenyl)thiazol-4-yl)-5,6-dihydro-[1,2,4]triazolo[4,3-a]pyrazin-7(8H)-yl)(4-fluorophenyl)methanone]"
13,< 500,"Cn1nc(-c2ccccc2)cc1-c1nnc2n1CCN(C(=O)c1ccc(-c3cccs3)cc1)C2 [Compound 220, (3-(1-methyl-3-phenyl-1H-pyrazol-5-yl)-5,6-dihydro-[1,2,4]triazolo[4,3-a]pyrazin-7(8H)-yl)(4-(thiophen-2-yl)phenyl)methanone]"
14,< 500,"O=C(c1ccc(-c2cccs2)cc1)N1CCn2c(nnc2-c2cc(-c3ccccc3)n(CCO)n2)C1 [Compound 285, (3-(1-(2-hydroxyethyl)-5-phenyl-1H-pyrazol-3-yl)-5,6-dihydro-[1,2,4]triazolo[4,3-a]pyrazin-7(8H)-yl)(4-(thiophen-2-yl)phenyl)methanone]"
15,< 500,"O=C(c1ccc(F)cc1)N1CCn2c(nnc2-c2csc(N3CCOCC3)n2)C1 [Compound 9, (4-fluorophenyl)(3-(2-morpholinothiazol-4-yl)-5,6-dihydro-[1,2,4]triazolo[4,3-a]pyrazin-7(8H)-yl)methanone]"
16,1000 to 5000,"O=C(c1ccc(F)cc1)N1CCn2c(nnc2-c2ccccn2)C1 [Compound 1, (4-fluorophenyl)(3-(pyridin-2-yl)-5,6-dihydro-[1,2,4]triazolo[4,3-a]pyrazin-7(8H)-yl)methanone]"
17,< 500,"C[C@@H]1c2nnc(-c3csc(-c4ccccc4)n3)n2CCN1C(=O)c1ccc(F)cc1 [Compound 45, (R)-(4-fluorophenyl)(8-methyl-3-(2-phenylthiazol-4-yl)-5,6-dihydro-[1,2,4]triazolo[4,3-a]pyrazin-7(8H)-yl)methanone]"
18,< 500,"CC1c2nnc(-c3ccc4ccccc4n3)n2CCN1C(=O)c1ccc(-c2cccs2)cc1 (stereo not drawn) [Compound 65, (8-methyl-3-(quinolin-2-yl)-5,6-dihydro-[1,2,4]triazolo[4,3-a]pyrazin-7(8H)-yl)(4-(thiophen-2-yl)phenyl)methanone]"
19,< 500,"CC1c2nnc(-c3csc(-c4ccccc4)n3)n2CCN1C(=O)c1ccc(F)cc1 (stereo not drawn) [Compound 166, (4-fluorophenyl)(8-methyl-3-(2-phenylthiazol-4-yl)-5,6-dihydro-[1,2,4]triazolo[4,3-a]pyrazin-7(8H)-yl)methanone]"
20,< 500,"O=C(c1ccc(-c2cccs2)cc1)N1CCn2c(nnc2-c2csc(-c3ccc(N4CCCC4)cc3)n2)C1 [Compound 245, (3-(2-(4-(pyrrolidin-1-yl)phenyl)thiazol-4-yl)-5,6-dihydro-[1,2,4]triazolo[4,3-a]pyrazin-7(8H)-yl)(4-(thiophen-2-yl)phenyl)methanone]"
21,< 500,"O=C(c1ccc(F)cc1)N1CCn2c(nnc2-c2nc3c(s2)CCCC3)C1 [Compound 27, (4-fluorophenyl)(3-(4,5,6,7-tetrahydrobenzo[d]thiazol-2-yl)-5,6-dihydro-[1,2,4]triazolo[4,3-a]pyrazin-7(8H)-yl)methanone]"
22,< 500,"O=C(c1ccc(-c2cccs2)cc1)N1CCn2c(nnc2-c2csc(-c3ccccc3)n2)C1 [Compound 54, (3-(2-phenylthiazol-4-yl)-5,6-dihydro-[1,2,4]triazolo[4,3-a]pyrazin-7(8H)-yl)(4-(thiophen-2-yl)phenyl)methanone]"
23,< 500,"CC1c2nnc(-c3csc(-c4ccc(F)cc4)n3)n2CCN1C(=O)c1cc(F)c(F)c(F)c1 (stereo not drawn) [Compound 113, (3-(2-(4-fluorophenyl)thiazol-4-yl)-8-methyl-5,6-dihydro-[1,2,4]triazolo[4,3-a]pyrazin-7(8H)-yl)(3,4,5-trifluorophenyl)methanone]"
24,< 500,"COCCC1CN(c2nc(-c3nnc4n3CCN(C(=O)c3ccc(-c5cccs5)cc3)C4)cs2)CCO1 (stereo not drawn) [Compound 257, (3-(2-(2-(2-methoxyethyl)morpholino)thiazol-4-yl)-5,6-dihydro-[1,2,4]triazolo[4,3-a]pyrazin-7(8H)-yl)(4-(thiophen-2-yl)phenyl)methanone]"
25,< 500,"O=C(c1ccc(-c2cccs2)cc1)N1CCn2c(nnc2-c2cc(-c3ccccc3)nn2CCO)C1 [Compound 284, (3-(1-(2-hydroxyethyl)-3-phenyl-1H-pyrazol-5-yl)-5,6-dihydro-[1,2,4]triazolo[4,3-a]pyrazin-7(8H)-yl)(4-(thiophen-2-yl)phenyl)methanone]"
26,< 500,"O=C(c1ccc(-c2ccccc2)cn1)N1CCn2c(nnc2-c2ccc3ccccc3n2)C1 [Compound 90, (5-phenylpyridin-2-yl)(3-(quinolin-2-yl)-5,6-dihydro-[1,2,4]triazolo[4,3-a]pyrazin-7(8H)-yl)methanone]"
27,< 500,"O=C(c1ccc(F)cc1)N1CCn2c(nnc2-c2csc(-c3cccc(C(F)(F)F)c3)n2)C1 [Compound 28, (4-fluorophenyl)(3-(2-(3-(trifluoromethyl)phenyl)thiazol-4-yl)-5,6-dihydro-[1,2,4]triazolo[4,3-a]pyrazin-7(8H)-yl)methanone]"

# Test system: circulating levels of luteinizing hormone (LH)
# Assay: Castrated male rat model, circulating levels of luteinizing hormone (LH)
# Type: in vivo
# Conditions: castrated male SD rats, single intravenous dose (156 and 144: 10 mg/kg; 71: 15 mg/kg; 114: 20 mg/kg), 60 min post dosing (156 also 120 min), vs. baseline
row,SMILES,effect on LH serum levels
1,"CC1c2nnc(-c3coc(-c4ccccc4)n3)n2CCN1C(=O)c1ccc(-c2cccs2)cc1 (stereo not drawn) [Compound 114, (8-methyl-3-(2-phenyloxazol-4-yl)-5,6-dihydro-[1,2,4]triazolo[4,3-a]pyrazin-7(8H)-yl)(4-(thiophen-2-yl)phenyl)methanone]",significantly suppressed GnRH-mediated elevation of LH
2,"C[C@@H]1c2nnc(-c3ccc4ccccc4n3)n2CCN1C(=O)c1ccc(-c2cccs2)cc1 [Compound 144, (R)-(8-methyl-3-(quinolin-2-yl)-5,6-dihydro-[1,2,4]triazolo[4,3-a]pyrazin-7(8H)-yl)(4-(thiophen-2-yl)phenyl)methanone]",significantly suppressed GnRH-mediated elevation of LH
3,"C[C@@H]1c2nnc(-c3csc(-c4ccc(F)cc4)n3)n2CCN1C(=O)c1ccc(F)cc1 [Compound 71, (R)-(4-fluorophenyl)(3-(2-(4-fluorophenyl)thiazol-4-yl)-8-methyl-5,6-dihydro-[1,2,4]triazolo[4,3-a]pyrazin-7(8H)-yl)methanone]",significantly suppressed GnRH-mediated elevation of LH
